How the values were obtained:
[1] = system: CYP7A1 and DUSP6 transcript levels in tumor biopsies; experiment: Tumor biopsy RNAseq pharmacodynamics; assay type: in vivo, human
Description: Additionally, exploratory biomarker endpoints to assess FGF19-FGFR4 signaling inhibition by FGF401 included temporal profiling of C4, FGF19, total bile acid and total cholesterol levels in blood, and CYP7A1 and DUSP6 transcript levels in tumor biopsies. An immunohistochemistry (IHC) assay to detect FGF19 was used retrospectively on remnant samples and the association of FGF19 expression levels with best change in sum of diameters (SOD) for RECIST v1.1 in the single-agent was evaluated.
For RNAseq based studies, extracted total RNA was depleted from ribosomal RNA using RNAseH. The rRNA-depleted sample was then prepared for sequencing using the TruSeq RNA v.2 Library Preparation kit (Illumina). After pooling the captured library using unique adapter index sequences and applying the pool to a sequencing flow cell, they were sequenced using Illumina v.4 chemistry and paired-end 100-bp reads. Sequence data were aligned to the reference human genome (build hg19) using STAR v.2.4.0e. Mapped reads were then used to quantify transcripts with HTSeq v.0.6.1p1 [28] and RefSeq GRCh38 v.82 gene annotation. Gene expression data were normalized using the trimmed mean of M-value normalization as implemented in the edgeR – Bioconductor package v.3.20.9 [29].

[2] = system: HCC or other solid tumors expressing FGFR4 and KLB; experiment: Antitumor activity per RECIST v1.1, FGF401 single agent; assay type: in vivo, human
Source text: (§1) The primary endpoint for the phase 1 parts was the incidence of DLTs evaluated. The probability of DLTs during the evaluation period was estimated for patients in the dose determining set (DDS) for each treatment arm, FGF401 single agent and FGF401 + spartalizumab combination, to estimate respective MTDs. DDS for the phase 1 single agent or combination comprised safety set patients who either experienced a DLT or had confirmation by both the sponsor and investigators that no DLT occurred during the first cycle, C1 (first 2 cycles: C1, C2) based on at least 66% of planned doses administered in C1 (C1 and C2) with a minimum of 21 (42) days of observation following the first dose. For phase 2, the primary efficacy endpoint to investigate the antitumor activity of FGF401 included time to tumor progression assessed in groups 1 and 2, and overall response rate (ORR) in group 3 based on local assessment per Response Evaluation Criteria in Solid Tumors (RECIST) v1.1.
Antitumor activity was locally assessed as per RECIST v1.1 and immune-related response criteria (irRC) (only for combination arm) and evaluated using the following endpoints: best overall response, overall response rate (ORR), disease control rate (DCR), time to tumor progression, and overall survival (OS). Estimation of best overall response (BOR) was based on assessments collected no later than 30 days after the last study treatment administration date for RECIST v1.1 and 150 days for irRC.
The primary and secondary efficacy outcomes were analyzed in the full analysis set according to the assigned treatment stratified by study group, which we defined as a subgroup (fast/fed, group 1/2/3) of patients who were administered with similar dose levels on a given treatment arm and phase. The results have been presented as per RECIST v1.1. The number of patients having BOR was provided along with ORR and DCR with 95% exact binomial CIs (Clopper-Pearson). Waterfall plots for the phase 1 parts depicted the best percentage change from baseline in sum of longest diameters (SOD). […] The estimate at a given time point was the estimated probability that a patient would remain event free up to that time point. A positive trend regarding the activity of FGF401 in groups 1 and 2 was concluded if the observed lower limit of their respective 90% CI was no less than their expected median TTPs of 1.5 months and 2.2 months estimated in the absence of FGF401. KM plots were also used to estimate OS rate with one-sided 95% CI at 3 months, 5 months, 7 months, and 9 months for single agent phase 1 overall and phase 2: groups 1, 2; for single agent phase 2 – group 3, OS, and progression free survival (PFS) were calculated regardless of RP2D but for overall tumor type.
Exploratory biomarker analyses were conducted using full analysis set to assess efficacy and FGF19 signaling inhibition associated with FGF401. The best tumor percentage change from baseline as per RECIST v1.1 were investigated by FGF19 status (positive/negative) as determined through RT-qPCR and IHC assay. An evaluable RT-qPCR sample was considered FGF19+ if mean threshold cycle for FGF19 was ≤35, and FGF19- otherwise. Among the patients with evaluable IHC assay samples, those who had % cellular positivity > 0 were considered FGF19 + .

[3] = system: patients with HCC or other solid tumors positive for FGFR4 and KLB; experiment: Phase 1 dose escalation, DLTs, MTD/RP2D, FGF401 single agent; assay type: in vivo
Description: Phase 1: Escalation with overdose control (EWOC) principle based on the observed dose-limiting toxicities (DLTs) was employed while escalating dosage starting with 50 mg until the lowest of MTD and/or RP2D was met. Sample size to have reasonable operating characteristics was estimated to be a minimum of 21 evaluable patients.
To further assess the effect of food uptake on FGF401, additional patients were recruited upon observance of clinical activity to receive doses under fed condition, in parallel with the fasted dose escalation. The starting dose was estimated at 80 mg qd. Principles of dose escalation aligned with those under fasted condition.
as §1
For the single-agent phase 1 primary outcome, an extended Bayesian hierarchical logistical regression model (BHLRM) was applied to estimate the relationship between dose and stratum (fasted vs fed) specific probability of a patient experiencing a DLT. […]

phospho-FGFR4 = details: preclinical; read-out: in vivo phospho-FGFR4 IC90; cited from earlier work
[4] = most on-treatment biopsies obtained at C1D8
[5] = single agent, phase I and phase II in total

## COCCNc1cc(NC(=O)N2CCCc3cc(CN4CCN(C)CC4=O)c(C=O)nc32)ncc1C#N [FGF401, roblitinib]
[1]; [4]
  CYP7A1 transcript in on-treatment versus pretreatment biopsies: upregulation
  DUSP6 transcript in on-treatment versus pretreatment biopsies: downregulation
[1]; signatures summarized with GSVA
  changes in immune infiltration after FGF401 treatment: did not observe significant changes
[2]; 120 mg, phase 1, fed and fasted combined, N = 45
  median TTP: 2.63 months
[2]; 120 mg, phase 1, fed and fasted combined, n/N = 38/45
  median OS: 5.72 months
[2]; all in patients with HCC
  patients reporting PR at RP2D in phase 2: 4 patients
[2]; patients with HCC, phase 1/2, 27 FGF19 positive, 33 negative
  response by FGF19 IHC status: trend for better response among the FGF19 IHC-positive patients
[2]; phase 1
  responses in patients with other tumor types: no responses
[2]; phase 1, 59 evaluable patients with HCC, 80 mg fasted, 80 mg fed, 150 mg fasted, each
  partial response (PR): 3 patients
[2]; phase 1, 59 evaluable patients with HCC, 120 mg, fasted
  complete response (CR): 1 patient
[2]; phase 2 group 1
  probability estimate of remaining event free (90% CI) at 9 months: 30.4 [19.1, 100]
[2]; phase 2 group 1 (n = 28), 120 mg qd
  PR: 2 patients
[2]; phase 2 group 2
  probability estimate of remaining event free (90% CI) at 9 months: 61.5 (49.8, 100)
[2]; phase 2 group 2 (n = 31), 120 mg qd
  PR: 2 patients
[2]; phase 2 group 3
  probability estimate of remaining event free (90% CI) at 9 months: 24.7 [12.6, 100]
[2]; [5]
  CR: 1 patients
  PR: 7 patients
  patients with objective responses: 8 patients
[2]; single-agent arm, prescreening biopsy
  association of FGF19 transcript level (RT-qPCR) with response: no clear association with response
[3]; human, in vivo, 21 days
  DLT: increase in blood bilirubin: 2 n
  DLT: increase in transaminases: 4 n
[3]; single agent, 50 to 150 mg
  MTD: not reached
phospho-FGFR4
  IC90: 52.1 nM

Source: paper PMC9161616, “A first-in-human phase 1/2 study of FGF401 and combination of FGF401 with spartalizumab in patients with hepatocellular carcinoma or biomarker-selected solid tumors” (Journal of Experimental & Clinical Cancer Research : CR, 2022)
